The record followed here is article PMC6445327, “Inhibition of the α-carbonic anhydrase from Vibrio cholerae with amides and sulfonamides incorporating imidazole moieties” (Journal of Enzyme Inhibition and Medicinal Chemistry, 2017).

≈ marks a conversion by molar mass, not a printed value.

Data set [1] has as its system V. cholerae O1 reference strain ATCC14103. The experiment in a line: In vitro antibacterial assay (broth dilution). In kind it is cell-based, Vibrio cholerae. Particulars: for concentration inhibiting bacterial growth: 37 °C, 18–20 h, tryptic soy broth. Background: Broth dilution looks for growth in wells or tubes with falling amounts of substance.
Data set [2] has as its system V. cholerae O1 strain ISS-Vc014 (multiresistant clinical isolate). The experiment in a line: In vitro antibacterial assay (broth dilution). In kind it is cell-based, Vibrio cholerae. The following applies: for concentration inhibiting bacterial growth: 37 °C, 18–20 h, tryptic soy broth.
Data set [3] addresses VchCA (Vibrio cholerae α-carbonic anhydrase) (Vibrio cholerae, UniProt Q9KMP6). The experiment in a line: biochemical. As for the experimental part:
(§1) The uncatalyzed rates were determined in the same manner and subtracted from the total observed rates. Stock solutions of inhibitor (0.01 mM) were prepared in distilled–deionised water with 5% DMSO and dilutions up to 0.1 nM were done thereafter with the assay buffer. The Inhibition constant (KI) was obtained by considering the classical Michaelis–Menten equation, which has been fitted by non-linear least squares by using PRISM 3. All CA isozymes used in the experiments were purified recombinant proteins obtained as reported earlier by our group.

The target of the next data set is T1, hCA II (Homo sapiens, UniProt P00918).
T1 construct: made in house
The experiment in a line: Stopped-flow CO2 hydration assay, CA inhibition. In kind it is biochemical. As for the experimental part: as §1

The next data set concerns the target T2, hCA I (Homo sapiens, UniProt P00915).
T2 construct: made in house
Briefly: Stopped-flow CO2 hydration assay, CA inhibition. In kind it is biochemical. The protocol: as §1

A short description of data set [4]: Limit of solubility in the antibacterial test. Particulars: 37 °C.
In data set [5] the test system is two V. cholerae O1 strains (ATCC14103 and ISS-Vc014). Briefly: In vitro antibacterial assay (broth dilution), strain not distinguished. The following applies: up to 3 mg ml^−1 (the limit of solubility). In kind it is cell-based, Vibrio cholerae.

T2 sequence (P00915 whole entry): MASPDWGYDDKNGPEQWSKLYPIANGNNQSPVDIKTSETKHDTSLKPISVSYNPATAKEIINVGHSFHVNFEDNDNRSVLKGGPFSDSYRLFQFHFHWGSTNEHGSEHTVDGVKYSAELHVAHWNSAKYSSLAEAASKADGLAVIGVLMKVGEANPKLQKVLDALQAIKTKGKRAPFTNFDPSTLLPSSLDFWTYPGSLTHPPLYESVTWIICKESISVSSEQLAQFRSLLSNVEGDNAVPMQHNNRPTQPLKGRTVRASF
Chain of VchCA (Vibrio cholerae α-carbonic anhydrase) (Q9KMP6 entry or part of it): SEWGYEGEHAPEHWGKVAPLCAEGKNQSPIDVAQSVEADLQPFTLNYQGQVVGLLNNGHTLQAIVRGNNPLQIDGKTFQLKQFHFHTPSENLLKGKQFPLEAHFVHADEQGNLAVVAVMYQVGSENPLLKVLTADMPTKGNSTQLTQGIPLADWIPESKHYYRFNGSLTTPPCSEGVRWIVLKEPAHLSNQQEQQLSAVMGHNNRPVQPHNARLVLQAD

For `CC1(C)S[C@@H]2[C@H](NC(=O)[C@H](N)c3ccccc3)C(=O)N2[C@H]1C(=O)O` [Ampicillin, reference compound], the entries for the “concentration inhibiting bacterial growth” value in data set [1] and in data set [2] were “higher than 0.01 mg ml^−1” and 1.0 mg/mL, respectively.
`CS(=O)(=O)NCCCn1ccnc1` [Compound 1, N-(3-(1H-imidazol-1-yl)propyl)methanesulfonamide] registered a melting point of 89 to 91 °C. This molecule also had a Ki in data set [3] of 10.9 nM. Also, the Ki at hCA II is more than 10000 nM. The molecule further displayed an inhibition constant Ki at hCA I of 387 nM.
Regarding `O=S(=O)(NCCCn1ccnc1)c1ccc(F)cc1` [Compound 2, N-(3-(1H-imidazol-1-yl)propyl)-4-fluorobenzenesulfonamide], the melting point was 121 to 123 °C. Further, in data set [1], the “activity compared to ampicillin” value is on record as “less active” and the “concentration inhibiting bacterial growth” value was found to be 2 mg/mL. Besides, in data set [3], the Ki amounted to 8.5 nM. In addition, on hCA II, the Ki was more than 10000 nM. This molecule displayed a Ki at hCA I of 1700 nM. In data set [2], the “activity compared to ampicillin” value was “comparable activity” and the “concentration inhibiting bacterial growth” value was determined as 2 mg/mL.
As to `O=S(=O)(NCCCn1ccnc1)c1ccc(C(F)(F)F)cc1` [Compound 3, N-(3-(1H-imidazol-1-yl)propyl)-4-(trifluoromethyl)benzenesulfonamide], the melting point was 127 to 128 °C. In data set [3], this molecule had a Ki of 6.4 nM. The inhibitory constant (Ki) on hCA II was more than 50000 nM. Moreover, on hCA I, the inhibitory constant (Ki) is more than 50000 nM.
For the molecule `O=[N+]([O-])c1ccc(S(=O)(=O)NCCCn2ccnc2)cc1` [Compound 4, N-(3-(1H-imidazol-1-yl)propyl)-4-nitrobenzenesulfonamide], the melting point was 140 to 141 °C. The molecule also displayed a Ki in data set [3] of 6.2 nM. This molecule also registered a Ki at hCA II of more than 50000 nM. The molecule also gave a Ki at hCA I of more than 50000 nM.
Turning to `CC(=O)NCCCn1ccnc1` [Compound 5, N-(3-(1H-imidazol-1-yl)propyl)acetamide], the Ki in data set [3] was 39.2 nM; on hCA II, more than 50000 nM; on hCA I, more than 50000 nM.
`O=C(NCCCn1ccnc1)c1ccc(F)cc1` [Compound 6, N-(3-(1H-imidazol-1-yl)propyl)-4-fluorobenzamide] gave a melting point of 70 to 72 °C. The molecule also displayed a Ki in data set [3] of 9.1 nM. The same molecule had an inhibitory constant (Ki) on hCA II of more than 50000 nM. The molecule further showed an inhibition constant (Ki) on hCA I of more than 50000 nM.
Take `O=C(NCCCn1ccnc1)c1ccc(C(F)(F)F)cc1` [Compound 7, N-(3-(1H-imidazol-1-yl)propyl)-4-(trifluoromethyl)benzamide]: the melting point fell in the range of 106 to 107 °C. For the same molecule, the solubility in data set [4] stood at 3000 µg/mL (≈ 10.1 mM). In data set [3], this molecule displayed a Ki of 10.4 nM. The “inhibition of the bacterial growth at higher concentrations” value in data set [5] is “not active”. For the same molecule, the inhibition constant Ki at hCA II is more than 10000 nM. In addition, the Ki at hCA I was 2550 nM.
In the case of `O=C(NCCCn1ccnc1)c1ccc([N+](=O)[O-])cc1` [Compound 8, N-(3-(1H-imidazol-1-yl)propyl)-4-nitrobenzamide], the melting point was 152 to 154 °C. The molecule also showed a solubility in data set [4] of 3000 µg/mL (≈ 10.9 mM). In addition, the Ki in data set [3] was 11 nM. Moreover, the “inhibition of the bacterial growth at higher concentrations” value in data set [5] is “partially active”. This molecule also showed a Ki on hCA II of more than 10000 nM. At hCA I, this molecule gave a Ki of 1730 nM.
As to `O=C(NCCCn1ccnc1)c1ccc(-c2ccccc2)cc1` [Compound 9, N-(3-(1H-imidazol-1-yl)propyl)-[1,1′-biphenyl]-4-carboxamide], the Ki in data set [3] was 5.4 nM; on hCA II it was more than 50000 nM; at hCA I it was more than 50000 nM.
With `O=C(NCCCc1ccccc1)c1ccc([N+](=O)[O-])cc1` [Compound 10, 4-Nitro-N-(3-phenylpropyl)benzamide], the melting point fell in the range of 95 to 97 °C. The same molecule came in with a Ki in data set [3] of 7.8 nM. Besides, the Ki on hCA II was more than 50000 nM. This molecule yielded an inhibitory constant (Ki) at hCA I of more than 50000 nM.

For orientation: Ki means a dissociation constant, usually derived from enzyme kinetics or from competition with a known ligand. Higher therefore signals weaker binding. By melting point is commonly meant the temperature of the solid-liquid transition. What is called solubility is how much of the substance goes into solution per volume.
